Measurements published in paper PMC11846289, “New tetrahydroisoquinolines bearing nitrophenyl group targeting HSP90 and RET enzymes: synthesis, characterization and biological evaluation” (BMC Chemistry, 2025).
≈ marks a conversion by molar mass, not a printed value. Entries after “also recorded” stand apart in the source; their conditions may differ.

Tests used:
[1] = test system: MG-63 (human osteosarcoma); experiment: one spot 100 µg/ml cytotoxicity, MG-63; type: cell-based; conditions: for inhibition at 100 µg/mL: Homo sapiens, MG-63, percent inhibition, read-out: one spot concentration inhibition, MG-63
[2] = test system: HCT116 (colon carcinoma human); experiment: one spot 100 µg/ml cytotoxicity, HCT116; type: cell-based; conditions: for inhibition at 100 µg/mL: Homo sapiens, HCT-116, percent inhibition, read-out: one spot concentration inhibition, HCT116
[3] = test system: CACO2 (colon carcinoma human); experiment: one spot 100 µg/ml cytotoxicity, CACO2; type: cell-based; conditions: for inhibition at 100 µg/mL: Homo sapiens, Caco-2, percent inhibition, read-out: one spot concentration inhibition, CACO2
[4] = test system: A549 (human lung carcinoma); experiment: one spot 100 µg/ml cytotoxicity, A549; type: cell-based; conditions: for inhibition at 100 µg/mL: Homo sapiens, A549, percent inhibition, read-out: one spot concentration inhibition, A549
[5] = test system: H460 (human lung carcinoma); experiment: one spot 100 µg/ml cytotoxicity, H460; type: cell-based; conditions: for inhibition at 100 µg/mL: Homo sapiens, NCI-H460, percent inhibition, read-out: one spot concentration inhibition, H460
[6] = test system: HUH7 (human liver carcinoma); experiment: one spot 100 µg/ml cytotoxicity, HUH7; type: cell-based; conditions: for inhibition at 100 µg/mL: Homo sapiens, Huh-7, percent inhibition, read-out: one spot concentration inhibition, HUH7
[7] = test system: HEPG2 (human liver carcinoma); experiment: one spot 100 µg/ml cytotoxicity, HEPG2; type: cell-based; conditions: for inhibition at 100 µg/mL: Homo sapiens, HepG2, percent inhibition, read-out: one spot concentration inhibition, HEPG2
[8] = test system: MCF7 (human breast carcinoma); experiment: one spot 100 µg/ml cytotoxicity, MCF7; type: cell-based; conditions: for inhibition at 100 µg/mL: Homo sapiens, MCF7, percent inhibition, read-out: one spot concentration inhibition, MCF7
[9] = test system: normal human skin cell line (HSF); experiment: one spot 100 µg/ml cytotoxicity, normal skin cell line HSF; type: cell-based; conditions: for cytotoxicity at 100 µg/mL / inhibition at 100 µg/mL: Homo sapiens; for cytotoxicity at 100 µg/mL: HSF, read-out: Inhibition percent of HSF cell line; for inhibition at 100 µg/mL: read-out: one spot concentration inhibition, HSF
HSF = experiment: IC50 against normal cell line HSF; type: cell-based, human; conditions: normal skin cell line HSF; for IC50: Homo sapiens, read-out: IC50 FOR HSF ± S.D.
MCF7 cell line = experiment: MTT in vitro cytotoxicity, MCF7; type: cell-based, human; conditions: for Selectivity Index = IC50 of HSF/ IC50 of MCF7: HSF vs MCF7; for IC50: Homo sapiens, read-out: IC50 for MCF7 ± S.D
Procedure: (§1) Using the MTT test method, the in vitro cytotoxicity of our synthesized compounds at different doses ranging from […] was examined in two cell lines, HEPG2 and MCF7, to examine 50% of the cancer cells dying.
(§2) Some of the synthesized compounds were tested as anticancer activity for the IC50 against two cell lines HEPG2 and MCF7 cells according to method. All cell lines were obtained from national cancer institute, Cairo—Egypt.

HEPG2 cell line = experiment: MTT in vitro cytotoxicity, HEPG2; type: cell-based, human; conditions: for Selectivity Index = IC50 of HSF/IC50 of HEPG2: HSF vs HEPG2; for IC50: Homo sapiens, read-out: IC50 for HEPG2 ± S.D
Procedure: as §1, §2

HEPG2 cells [10] = experiment: Cell cycle analysis by DNA flow cytometry; type: cell-based, human
From the text: After adding compound 3, we explore the growth inhibitory cell cycle mechanism of HEPG2 cell lines using DNA flow cytometry to examine the control and advancement of the cell cycle in HEPG2 cancer cells. […] When compound 3 was applied to HEPG2 cells, the cells cycled between the G0-G1 and G2/M phases (Fig. 4, Table 3). […] Compound 3 can also stop HEPG2 cells at the G0–G1% stage of the cell cycle, with an increase in the G0–G1phase fraction from 34.54 to 40.10.
The cell cycle arrests of compound 3 against HEPG2 was carried out according to Abcam method (code ab139418), (www.abcam.co.jp).

HEPG2 cells [11] = experiment: Annexin V-FITC/PI apoptosis assay; type: cell-based, human
Procedure: Showing a marked rise in overall apoptosis relative to the untreated control. […] HEPG2 cell death increases by 59 times following treatment with compounds 3. Therefore compound 3 has a biological mechanism that inhibits the proliferation of HEPG2 cells and has cytotoxic effects against cancer.
The Annexin-V FITC apoptosis assay of compounds 3 against HEPG2 was performed according to (BioVision Research Products (code k101-25). (www.biovision.com).

Compound | inhibition at 100 µg/mL [1] [%] | inhibition at 100 µg/mL [2] [%] | inhibition at 100 µg/mL [3] [%] | inhibition at 100 µg/mL [4] [%] | inhibition at 100 µg/mL [5] [%] | inhibition at 100 µg/mL [6] [%] | inhibition at 100 µg/mL [7] [%] | inhibition at 100 µg/mL [8] [%] | cytotoxicity at 100 µg/mL ([9]; one spot 100 µg/ml) [%] | inhibition at 100 µg/mL ([9]; 100 µg/ml, supplement Table S1) [%] | IC50 (HSF) [µg/mL] | Selectivity Index = IC50 of HSF/ IC50 of MCF7 (MCF7 cell line) | IC50 (MCF7 cell line; MTT, MCF7) [µg/mL] | Selectivity Index = IC50 of HSF/IC50 of HEPG2 (HEPG2 cell line) | IC50 (HEPG2 cell line; MTT, HEPG2) [µg/mL] | further results
CSc1nc(C)c2c(c1C#N)CC(C)(O)C(C(C)=O)C2c1cccc([N+](=O)[O-])c1 (centres unmarked) [Compound 3, 7-Acetyl-4-cyano-1,6-dimethyl-6-hydroxy-3-methylthio-8-(3-nitrophenyl)−5,6,7,8-tetrahydroisoquinoline] | 44.3 | 67.1 | 59.2 | 50.6 | 62 | 32.9 | 67.7 | 71.5 | 52 | 50.6 | 96 (≈ 233 µM) | 2.9 | 33 ± 0.034 (≈ 80.2 µM) | 1.2 | 75 ± 0.063 (≈ 182 µM) | cell cycle arrest phase (HEPG2 cells [10]; HEPG2): G2/M phase; also recorded: G0-G1, G2/M phases; %G2/M (HEPG2 cells [10]; HEPG2, 48 h at IC50 75 µg/ml, control 12.12): 25.67%; %S (HEPG2 cells [10]; HEPG2, 48 h at IC50 75 µg/ml, control 23.51): 22.10%; %G0–G1 (HEPG2 cells [10]; HEPG2, 48 h at IC50 75 µg/ml, control 34.54): 40.1%; Apoptosis Early (HEPG2 cells [11]; HEPG2, control 0.2): 13.45%; Apoptosis Late (HEPG2 cells [11]; HEPG2, control 0.31): 16.78%; Necrosis (HEPG2 cells [11]; HEPG2, control 1.36): 2.96%; Apoptosis Total (HEPG2 cells [11]; HEPG2, control 1.87): 33.19%; fold increase in HEPG2 cell line apoptosis (HEPG2 cells [11]; relative to untreated control): 59 fold
CC(=O)c1ccc(NC(=O)c2sc3nc(C)c4c(c3c2N)CC(C)(O)C(C(C)=O)C4c2cccc([N+](=O)[O-])c2)cc1 (centres unmarked) [Compound 7a, 7-Acetyl-N-(4-acetylophenyl)−1-amino-5,8-dimethyl-8-hydroxy-6-(3-nitro-phenyl)−6,7,8,9-tetrahydrothieno[2,3-c]isoquinoline-2-carboxamide] | – | – | – | – | – | – | – | – | – | – | – | 1.8 | – | 0.92 | – | one spot concentration inhibition, MG-63 ([1]; percent inhibition): 50.44%; one spot concentration inhibition, HCT116 ([2]; percent inhibition): 59.7%; one spot concentration inhibition, CACO2 ([3]; percent inhibition): 58.2%; one spot concentration inhibition, A549 ([4]; percent inhibition): 46.81%; one spot concentration inhibition, H460 ([5]; percent inhibition): 59.87%; one spot concentration inhibition, HUH7 ([6]; percent inhibition): 32.35%; one spot concentration inhibition, HEPG2 ([7]; percent inhibition): 58.67%; one spot concentration inhibition, MCF7 ([8]; percent inhibition): 57.92%; one spot concentration inhibition, HSF ([9]; 100 µg/ml, supplement Table S1): 51.85%; Inhibition percent of HSF cell line ([9]; one spot 100 µg/ml): 55%; IC50 FOR HSF ± S.D. (HSF): 90 µg/mL (≈ 157 µM); IC50 for MCF7 ± S.D (MCF7 cell line; MTT, MCF7): 50 ± 0.031 µg/mL; IC50 for HEPG2 ± S.D (HEPG2 cell line; MTT, HEPG2): 97 ± 0.054 µg/mL
CC(=O)C1C(c2cccc([N+](=O)[O-])c2)c2c(C)nc(SCC(=O)Nc3cccc4ccccc34)c(C#N)c2CC1(C)O (centres unmarked) [Compound 8a, 2-[(7-Acetyl-4-cyano-1,6-dimethyl-6-hydroxy-8-(3-nitrophenyl)−5,6,7,8-tetrahydro-isoquinolin-3-yl)thio]-N-(naphthalen-1-yl)acetamide] | 38.5 | 56.1 | 53.2 | 46.2 | 59.6 | 25.9 | 60 | 72.4 | 59 | 56.9 | 84 (≈ 145 µM) | 1.6 | 50 ± 0.019 (≈ 86.1 µM) | 0.95 | 88 ± 0.072 (≈ 152 µM) | –
CC(=O)C1C(c2ccc([N+](=O)[O-])cc2)c2c(C)nc(SCC(=O)Nc3cccc4ccccc34)c(C#N)c2CC1(C)O (centres unmarked) [Compound 8b, 2-[(7-Acetyl-4-cyano-1,6-dimethyl-6-hydroxy-8-(4-nitrophenyl)−5,6,7,8-tetrahydro-isoquinolin-3-yl)thio]-N-(naphthalen-1-yl)acetamide] | 57.5 | 67.5 | 41.7 | 15.2 | 62 | 30.2 | 66.6 | 57.2 | 50 | 48.2 | 100 (≈ 172 µM) | > 2 | 12 ± 0.056 (≈ 20.7 µM) | 1.1 | 94 ± 0.82 (≈ 162 µM) | Selectivity Index = IC50 of HSF/ IC50 of MCF7 (MCF7 cell line; listed as 8B): 8.3
CC(=O)C1C(c2ccc([N+](=O)[O-])cc2)c2c(C)nc3sc(C(=O)Nc4cccc5ccccc45)c(N)c3c2CC1(C)O (centres unmarked) [Compound 9b, 7-Acetyl-1-amino-N-(naphthalen-1-yl)−5,8-dimethyl-8-hydroxy-6-(4-Nitrophenyl)−6,7,8,9-tetrahydrothieno[2,3-c]isoquinoline-2-carboxamide] | 30.2 | 55.6 | 51.7 | 45 | 58 | 35.7 | 70 | 55.2 | 58 | 56.2 | 86 (≈ 148 µM) | 1.1 | 80 ± 0.05 (≈ 138 µM) | 0.98 | 87 ± 0.61 (≈ 150 µM) | –
CC(=O)C1C(c2cccc([N+](=O)[O-])c2)c2c(C)nc3sc(C(=O)Nc4nc5ccccc5s4)c(N)c3c2CC1(C)O (centres unmarked) [Compound 10, 7-Acetyl-1-amino-N-(benzthiazol-2-yl)−5,8-dimethyl-8-hydroxy-6-(3-nitrophenyl)−6,7,8,9-tetrahydrothieno[2,3-c]isoquinoline-2-carboxamide] | 46.7 | 59.2 | 60.6 | 47.4 | 63.3 | 21.8 | 55.2 | 75.4 | 56 | 54.7 | 89 (≈ 151 µM) | – | > 100 | – | > 100 | –
COc1cccc2c1C(=O)c1c(O)c3c(c(O)c1C2=O)C[C@@](O)(C(=O)CO)C[C@@H]3O[C@H]1C[C@H](N)[C@H](O)[C@H](C)O1 [Doxorubicin, reference compound] | 63.8 | 70.9 | 74.8 | 32 | 72.9 | 52.8 | 58.9 | 74 | 60 | 58.9 | 83 (≈ 153 µM) | 18.1 | 4.58 ± 0.081 (≈ 8.43 µM) | 20.1 | 4.13 ± 0.054 (≈ 7.6 µM) | –
